Experimental data taken from patent US20240240256A1, “MOLECULAR ANALYSIS OF EXTRACELLULAR VESICLES (EVs) FOR THE PREDICTION AND MONITORING OF DRUG RESISTANCE IN CANCER” (The General Hospital Corporation, priority 2023, published 2024).

Assays:
[1] = test system: HCC1954 REPX; test: MTT growth inhibition assay, paclitaxel-resistant subtype; format: cell-based, human
Procedure: To develop the paclitaxel resistance subtype, cells were continually exposed to stepwise increases in the concentration of paclitaxel over 16 to 18 weeks. Briefly, HCC1954 cells were seeded at a density of ˜5×10^5/mL in a T75 cell culture flask with 10 mL complete growth medium. After 4-6 hours of incubation, relatively low concentrations of paclitaxel (ranging from 1 to 150 nM) were added into the medium. Cells were left in paclitaxel for three days or until a stable cell re-population formed. Regular medium replenishment was performed throughout this period. The paclitaxel concentration was then increased by 0.5 to 2-fold. This stepwise dose escalation continued for 16 to 18 weeks until the paclitaxel concentration reached at least ten times the starting concentration. […]
Drug sensitivity was determined by the 3-(4, 5-dimethylthiazol-2-yl)-2, 5-diphenyl tetrazolium bromide (MTT) colorimetric assay. First, cells were counted with a hemocytometer, seeded in a 96-well plate, and cultured for 24 h. […] The optical density (OD; absorbance at 540 nm) was measured using a plate reader (Tecan). […]
To generate a resistance cell model in vitro (HCC1954 REPX), the HCC1954 cell line was treated with increasing concentrations of paclitaxel, and cell viability was re-evaluated after 18 weeks of treatment.

[2] = test system: HCC1937; test: MTT growth inhibition assay, paclitaxel drug sensitivity; format: cell-based; settings: Homo sapiens, HCC1937 breast cancer cells, 72 h treatment, read-out: paclitaxel inhibitor concentration 50 (IC50)
Procedure: (§1) The human breast cancer cell lines, including HCC1954, BT474, MCF7, MDA-MB-231, HCC1937 cells, and normal breast cell, Hs371T, were purchased from American Type Culture Collection (ATCC) and cultured at 37° C. in 5% CO2. HCC1954, BT474, and HCC1937 cells were grown in RPMI-1640 (Hyclone), and MCF7, MDA-MB-231, and Hs371T cells were cultured in DMEM (Cyclone). All complete media contained 10% fetal bovine serum (FBS, ThermoFisher Scientific), 100 U/mL penicillin, and 100 μg/mL streptomycin (Millipore Sigma).
(§2) Drug sensitivity was determined by the 3-(4, 5-dimethylthiazol-2-yl)-2, 5-diphenyl tetrazolium bromide (MTT) colorimetric assay. First, cells were counted with a hemocytometer, seeded in a 96-well plate, and cultured for 24 h. After that, cells were treated with paclitaxel for 72 h: paclitaxel (1.00E-06-10 µM). Subsequently, MTT dye (Sigma-Aldrich; Merck KGaA) at a final concentration of 0.5 mg/ml was added for 3 hours. This was followed by replacing the medium and dissolving the formazan crystals with DMSO. The optical density (OD; absorbance at 540 nm) was measured using a plate reader (Tecan). Data (mean±SD of at least three independent experiments performed in triplets) are presented as the relative proliferation as a function of time after seeding.
(§3) MTT assay was performed for each cell line to determine the paclitaxel inhibitor concentration 50 (IC50) in the six breast cancer cell lines included.

[3] = test system: BT474; test: as above; format: cell-based; settings: Homo sapiens, BT-474, BT474 breast cancer cells, 72 h treatment, read-out: paclitaxel inhibitor concentration 50 (IC50)
Procedure: as §1, §2, §3

[4] = test system: HCC1954; test: as above; format: cell-based; settings: Homo sapiens, HCC1954 breast cancer cells, 72 h treatment, read-out: paclitaxel inhibitor concentration 50 (IC50)
Procedure: as §1, §2, §3

[5] = test system: MD-MB-231; test: as above; format: cell-based; settings: Homo sapiens, MD-MB-231 breast cancer cells, 72 h treatment, read-out: paclitaxel inhibitor concentration 50 (IC50)
Procedure: as §1, §2, §3

CC(=O)O[C@H]1C(=O)[C@@]2(C)[C@H]([C@H](OC(=O)c3ccccc3)[C@]3(O)C[C@H](OC(=O)[C@H](O)[C@@H](NC(=O)c4ccccc4)c4ccccc4)C(C)=C1C3(C)C)[C@]1(OC(C)=O)CO[C@@H]1C[C@@H]2O [paclitaxel, Paclitaxel]
IC50 ([1]; Homo sapiens, HCC1954 REPX paclitaxel-resistant subtype, after 18 weeks of paclitaxel treatment, MTT): 1800 nM | increase in paclitaxel-resistance ([1]; IC50 in HCC1954 REPX compared to parental HCC1954): 128.57 fold | IC50 [2]: 9900 nM | IC50 [3]: 100 nM | IC50 [4]: 14 nM | IC50 [5]: 600 nM
